{
  "source": "patent US20060147520A1",
  "about": "“Treatment of pulmonary hypertension by inhaled iloprost with a microparticle formulation” (priority 2004, published 2006)",
  "key": {"[1]": {"system": "PAH", "conditions": "oral; cited from earlier work"}, "[2]": {"system": "men with mild-to-severe ED", "conditions": "cited from earlier work"}, "[3]": {"system": "men with ED", "conditions": "cited from earlier work"}, "[4]": {"experiment": "hydrophobicity scale of amino acids", "assay_type": "physicochemical", "conditions": "scale on which glycine has the value 0.5", "description": "Hydrophobicity is generally defined with respect to the partition of an amino acid between a nonpolar solvent and water. Hydrophobic amino acids are those acids which show a preference for the nonpolar solvent. Relative hydrophobicity of amino acids can be expressed on a hydrophobicity scale on which glycine has the value 0.5. On such a scale, amino acids which have a preference for water have values below 0.5 and those that have a preference for nonpolar solvents have a value above 0.5. As used herein, the term hydrophobic amino acid refers to an amino acid that, on the hydrophobicity scale has a value greater or equal to 0.5, in other words, has a tendency to partition in the […] which is at least equal to that of glycine.\nA mixture including 40 weight % of an amino acid and 60 weight % DPPC is formed in a 70/30 vol/vol ethanol-water co-solvent and spray-dried and the geometric aerodynamic diameters for the particles are determined. In addition, the hydrophobicity and tap density may also be determined. Tap density may be determined using the equation provided above."}, "[5]": {"system": "erectile dysfunction (ED)", "conditions": "in vivo; cited from earlier work"}, "[6]": {"experiment": "glass stability of derivatized carbohydrates immersed in aqueous medium", "assay_type": "physicochemical", "conditions": "THEX: saline medium at 37° C.; lactose derivative: water"}, "[7]": {"system": "African Green monkey kidney-derived cell line Vero", "experiment": "toxicity of HDC glasses in vitro", "assay_type": "cell-based", "conditions": "week of culture", "method": "A saturated solution of TOAC in deionized distilled water (0.42 g in 20 mls) is tested for toxicity in vitro using the African Green monkey kidney-derived cell line Vero, in either a 10-fold serial dilution or by adding the TOAC powder directly to the tissue culture medium."}, "[8]": {"system": "pulmonary hypertension", "conditions": "cited from earlier work"}, "[9]": {"system": "patients with severe PAH", "conditions": "versus placebo; cited from earlier work"}, "[10]": {"system": "patients with pulmonary hypertension", "conditions": "administered by aerosolization; cited from earlier work"}, "[11]": {"system": "pulmonary hypertension", "conditions": "in vivo; cited from earlier work"}, "[12]": {"experiment": "dissolution of HDC glass discs in water", "assay_type": "physicochemical"}},
  "note": "Like-named read-outs stand apart in the source and are kept apart here.",
  "data": [
    {"smiles": "CC#CCC(C)[C@H](O)/C=C/[C@@H]1[C@H]2c3cccc(CCCC(=O)O)c3O[C@H]2C[C@H]1O", "note": "(mixture of isomers) [Beraprost]", "values": [
      {"measurement": "benefit in PAH", "setting": "[1]", "result": "benefit in a study in PAH at 3 and 6 months but not at 9 or 12 months"}
    ]},
    {"smiles": "CN1CC(=O)N2[C@H](c3ccc4c(c3)OCO4)c3[nH]c4ccccc4c3C[C@@H]2C1=O", "note": "[Cialis, tadalafil]", "values": [
      {"measurement": "most commonly reported treatment-emergent adverse effects", "setting": "[2]; greater than or equal to 5 percent", "result": "headache, back pain, and upset stomach"},
      {"measurement": "patients who discontinued the study because of adverse events", "setting": "[2]; in vivo", "result": 5, "unit": "%"},
      {"measurement": "most commonly reported treatment-emergent adverse effects", "setting": "[3]; 10 mg, increased to 20 mg, at least one year", "result": "headache and upset stomach"},
      {"measurement": "discontinuation rate for any individual adverse event", "setting": "[3]; in vivo", "result": "less than 1%"},
      {"measurement": "patients who discontinued the study due to side effects", "setting": "[3]; in vivo", "result": "Five"}
    ]},
    {"smiles": "N[C@@H](CCC(=O)O)C(=O)O", "note": "[Glutamate]", "values": [
      {"measurement": "hydrophobicity", "setting": "[4]", "result": 0.043}
    ]},
    {"smiles": "CC[C@H](C)[C@H](N)C(=O)O", "note": "[Isoleucine]", "values": [
      {"measurement": "hydrophobicity", "setting": "[4]", "result": 0.943}
    ]},
    {"smiles": "CCCc1nc(C)c2c(=O)[nH]c(-c3cc(S(=O)(=O)N4CCN(CC)CC4)ccc3OCC)nn12", "note": "[Levitra, vardenafil HC1]", "values": [
      {"measurement": "most commonly reported side effects", "setting": "[5]", "result": "headache, flushing, and stuffy or runny nose"}
    ]},
    {"smiles": "N[C@@H](Cc1ccccc1)C(=O)O", "note": "[Phenylalanine]", "values": [
      {"measurement": "hydrophobicity", "setting": "[4]", "result": 0.501}
    ]},
    {"smiles": "CC(C)(C)CC(=O)O[C@@H]1[C@@H](OC(=O)CC(C)(C)C)[C@@H](O[C@H]2O[C@H](CO)[C@@H](OC(=O)CC(C)(C)C)[C@H](OC(=O)CC(C)(C)C)[C@H]2OC(=O)CC(C)(C)C)O[C@H](CO)[C@H]1OC(=O)CC(C)(C)C", "note": "[THEX, Trehalose hexa-3,3-dimethylbutyrate]", "values": [
      {"measurement": "stability of the glassy state when immersed", "setting": "[6]", "result": "stable in the glassy state"}
    ]},
    {"smiles": "CC(=O)OCC1OC(OC2OC(COC(C)=O)C(OC(C)=O)C(OC(C)=O)C2OC(C)=O)C(OC(C)=O)C(OC(C)=O)C1OC(C)=O", "note": "(centres unmarked) [TOAC, trehalose octaacetate]", "values": [
      {"measurement": "toxicity in vitro", "setting": "[7]; saturated solution in water (0.42 g in 20 mls), 10-fold serial dilution or powder added to the medium", "result": "No toxic effects"},
      {"measurement": "cell division", "setting": "[7]", "result": "normal"}
    ]},
    {"smiles": "COc1ccccc1Oc1c(NS(=O)(=O)c2ccc(C(C)(C)C)cc2)nc(-c2ncccn2)nc1OCCO", "note": "[bosentan]", "values": [
      {"measurement": "liver toxicity", "setting": "[8]; higher dose", "result": "liver toxicity occurred"},
      {"measurement": "six minute walk test", "setting": "[8]; whole group", "result": "improved"}
    ]},
    {"smiles": "CC#CCC(C)[C@H](O)/C=C/[C@@H]1[C@H]2C/C(=C/CCCC(=O)O)C[C@H]2C[C@H]1O", "note": "(some centres unmarked) [iloprost]", "values": [
      {"measurement": "exercise capacity", "setting": "[9]", "result": "improved exercise capacity"}
    ]},
    {"smiles": "CC(=O)OC[C@H]1O[C@@H](O[C@H]2[C@H](OC(C)=O)[C@@H](OC(C)=O)C(OC(=O)C(C)C)O[C@@H]2COC(C)=O)[C@H](OC(C)=O)[C@@H](OC(C)=O)[C@H]1OC(C)=O", "note": "(some centres unmarked) [lactose isobutyrate heptaacetate]", "values": [
      {"measurement": "stability of the glassy state when immersed", "setting": "[6]", "result": "very stable in the glassy state"}
    ]},
    {"smiles": "CCCCC[C@H](O)/C=C/[C@@H]1[C@H]2C/C(=C/CCCC(=O)O)O[C@H]2C[C@H]1O", "note": "[prostacyclin]", "values": [
      {"measurement": "duration of effects", "setting": "[10]", "result": 15, "unit": "min"}
    ]},
    {"smiles": "Cc1cc2c(cc1CC(=O)c1sccc1S(=O)(=O)Nc1onc(C)c1Cl)OCO2", "note": "[sitaxsentan]", "values": [
      {"measurement": "decrease in pulmonary vascular resistance", "setting": "[11]", "result": 30, "unit": "%"},
      {"measurement": "six minute walk test", "setting": "[11]", "result": "improvement"}
    ]},
    {"smiles": "CC(=O)OC[C@H]1O[C@H](OC(C)=O)[C@H](OC(C)=O)[C@@H](OC(C)=O)[C@@H]1OC(C)=O", "note": "[α-D-glucose pentaacetate]", "values": [
      {"measurement": "loss of original weight", "setting": "[12]; disc in 1 l of water replaced daily, 7 days", "result": 20, "unit": "%"}
    ]},
    {"smiles": "CC(=O)OC[C@H]1O[C@@H](OC(C)=O)[C@H](OC(C)=O)[C@@H](OC(C)=O)[C@@H]1OC(C)=O", "note": "[β-D-glucose pentaacetate]", "values": [
      {"measurement": "solubility of the glass in water", "setting": "[12]", "result": "poorly soluble in water"},
      {"measurement": "loss of original weight", "setting": "[12]; disc 20 mm diameter, 2.5 mm thick, flowing water, 10 days", "result": "about 33%"}
    ]}
  ]
}
